From PMC9734143, “An efficient human stem cells derived cardiotoxicity testing platform for testing oncotherapeutic analogues of quercetin and cinnamic acid” (Scientific Reports, 2022)
Like-named read-outs stand apart in the source and are kept apart here.

Assays:
colorectal cancer = test system: colorectal cancer; design: method as in PMID 25824412, PMID 30687400; conditions: previously reported studies; cited from earlier work
[1] = test system: Vero, a non-cancerous cell line; design: method as in PMID 25824412, PMID 30687400; conditions: read-out: IC50 in Vero cells; cited from earlier work
[2] = test system: cardiomyocytes (WJCM and H9C2 cells); assay: Cardiotoxicity across parameters as summarised in the discussion (WJCM and H9C2 cells); type: cell-based, human and rat; conditions: for overall cardiotoxicity across the parameters analyzed: analogues at Vero IC50 concentration, 24 h
Text: We investigated the effects of 3-hydroxyflavone (QMJ-2, QMJ-5, and QMJ-6) and cinnamyl sulfonamide-hydroxamate (NMJ-1, NMJ-2, NMJ-3) in WJCM and H9C2 cells using the concentrations reported for non-cancerous Vero cells. The prerequisite for any synthesized drug molecules is that they should be nontoxic to cardiac cells.

[3] = test system: cardiac markers (NKX2.5, GATA4, Troponin I, Troponin T, MHCα) in WJCM; assay: qRT-PCR gene expression of cardiac-specific markers in WJCM
Protocol: Differentiation of WJMSCs was done using a proprietary combination of DNMT and HDAC inhibitors in KO-DMEM/F-12 containing 10% FBS for 48 h. Induction media was replaced with culture media i.e. KO-DMEM/F-12 with 1X GlutaMAX and, 10% FBS after 48 h for 7 days[23].
WJMSC-derived cardiomyocytes (WJCM) and H9C2 were treated with NMJ and QMJ analogues for 24 h. […] To illustrate the toxicity specific to cardiac cells and not a general cytotoxicity, WJMSCs were treated with positive cardiotoxic drugs.
Total ribonucleic acid (RNA) was isolated using RNAiso Plus (TaKaRa, Shiga, Japan) followed by cDNA conversion using PrimeScript™ 1st strand cDNA synthesis kit (TaKaRa, Shiga, Japan). Quantitative reverse transcriptase-polymerase chain reaction (qRT-PCR) was performed by using TB Green™ Premix Ex Taq™ II (Tli RNase H Plus; TaKaRa, Shiga, Japan) for cardiac markers in a QuantStudio™ 5 real-time PCR Systems (Applied Biosystems, USA). All the primers were purchased from Sigma Aldrich, Bangalore, India (Table 1). The relative gene expression was calculated using 2^-∆∆CT and GAPDH, a housekeeping gene was used as endogenous control[52],[53].

H9C2 cells [4] = assay: MTT cell viability assay in H9C2 cells; type: cell-based, rat; conditions: 24 h; analogues at Vero IC50 concentration; Dox 1 µM
Protocol: (§1) Similarly, the toxicity of these compounds in terms of the viability of cells was estimated by using the MTT assay and cell counting kit-8 (CCK-8) assay. For MTT assay, after 24 h of treatments, MTT (5 mg/ml of PBS; HiMedia, India) was added, and cells were incubated for 2 h at 37 °C. The formazan crystals that were formed after the incubation were dissolved using dimethyl sulfoxide (DMSO). For the CCK-8 assay, 10 μL of CCK-8 solution (Boster Biological Technology, Pleasanton, CA, USA) was added to each well and incubated for 2 h at 37 °C. The absorbance for MTT and CCK-8 assay was measured at 570 nm and 450 nm respectively using the EnSight™ Multimode plate reader (Perkin Elmer, MA, USA)[49],[50].

[5] = test system: WJMSC-derived cardiomyocytes (WJCM); assay: LDH release assay in WJCM; type: cell-based, human; conditions: 24 h; analogues at Vero IC50 concentration
Protocol: (§2) The experiment was performed as per the manufacturer’s protocol. Absorbance was taken at 490 nm and 680 nm (background signal) using multimode plate reader. LDH activity was calculated by subtracting absorbance taken at 680 nm from 490 nm.

H9C2 cells [6] = assay: LDH release assay in H9C2 cells; type: cell-based, rat; conditions: 24 h; analogues at Vero IC50 concentration
Protocol: as §2

WJMSCs [7] = assay: MTT cell viability assay in undifferentiated WJMSCs; type: cell-based, human; conditions: 24 h; Dox 1 µM, 5FU 1 µM, Cis 5 µM; undifferentiated cells
Protocol: as §1, with “°C.” for “°C. The absorbance for MTT and CCK-8 assay was measured at 570 nm and 450 nm respectively using the EnSight™ Multimode plate reader (Perkin Elmer, MA, USA)[49],[50].”

WJMSCs [8] = assay: LDH release assay in undifferentiated WJMSCs; type: cell-based, human; conditions: 24 h; Dox 1 µM, 5FU 1 µM, Cis 5 µM; undifferentiated cells
Protocol: Mesenchymal stem cells from Wharton's jelly (WJMSCs) were isolated from the Wharton's jelly of the human umbilical cord via enzymatic digestion as described previously with slight modifications. Experiments were performed after obtaining clearance from Institutional Ethical Committee ([…] Hospital, Bangalore, India. Informed consent was obtained from the donor and all the experiments were performed in accordance with relevant guidelines and regulations. Rat cardiomyoblast cell line, H9C2 was obtained from National Centre for Cell Science (NCCS), Pune, India. WJMSCs were maintained in KnockoutTM Dulbecco's Modified Eagle Medium/Nutrient Mixture F-12 (KO-DMEM/F-12; Gibco, MA, USA) with 10% Fetal bovine serum (FBS, Gibco, MA, USA), 1X GlutaMAX (Gibco, MA, USA), and 1X Antibiotic Antimycotic Solution (Gibco, MA, USA). H9C2 cells were cultured in Dulbecco's Modified Eagle Medium-High Glucose (DMEM-HG; Gibco, MA, USA) supplemented with 10% FBS and 1X Antibiotic-Antimycotic solution at 37 °C in 5% CO2 incubator. […] The experiment was performed as per the manufacturer's protocol. Absorbance was taken at 490 nm and 680 nm (background signal) using multimode plate reader. LDH activity was calculated by subtracting absorbance taken at 680 nm from 490 nm.

WJMSCs [9] = assay: CCK-8 assay in undifferentiated WJMSCs; type: cell-based, human; conditions: 24 h; Dox 1 µM, 5FU 1 µM, Cis 5 µM; undifferentiated cells
Protocol: Mesenchymal stem cells from Wharton's jelly (WJMSCs) were isolated from the Wharton's jelly of the human umbilical cord via enzymatic digestion as described previously with slight modifications. Experiments were performed after obtaining clearance from Institutional Ethical Committee ([…] Hospital, Bangalore, India. Informed consent was obtained from the donor and all the experiments were performed in accordance with relevant guidelines and regulations. Rat cardiomyoblast cell line, H9C2 was obtained from National Centre for Cell Science (NCCS), Pune, India. WJMSCs were maintained in KnockoutTM Dulbecco's Modified Eagle Medium/Nutrient Mixture F-12 (KO-DMEM/F-12; Gibco, MA, USA) with 10% Fetal bovine serum (FBS, Gibco, MA, USA), 1X GlutaMAX (Gibco, MA, USA), and 1X Antibiotic Antimycotic Solution (Gibco, MA, USA). H9C2 cells were cultured in Dulbecco's Modified Eagle Medium-High Glucose (DMEM-HG; Gibco, MA, USA) supplemented with 10% FBS and 1X Antibiotic-Antimycotic solution at 37 °C in 5% CO2 incubator. […] Similarly, the toxicity of these compounds in terms of the viability of cells was estimated by using the MTT assay and cell counting kit-8 (CCK-8) assay. For MTT assay, after 24 h of treatments, MTT (5 mg/ml of PBS; HiMedia, India) was added, and cells were incubated for 2 h at 37 °C. The formazan crystals that were formed after the incubation were dissolved using dimethyl sulfoxide (DMSO). For the CCK-8 assay, 10 μL of CCK-8 solution (Boster Biological Technology, Pleasanton, CA, USA) was added to each well and incubated for 2 h at 37 °C. The absorbance for MTT and CCK-8 assay was measured at 570 nm and 450 nm respectively using the EnSightTM Multimode plate reader (Perkin Elmer, MA, USA)[49],[50].

[10] = test system: WJMSC-derived cardiomyocytes (WJCM); assay: MTT and CCK-8 cell viability assays in WJCM; type: cell-based, human; conditions: 24 h; analogues at Vero IC50 concentration; Dox 1 µM
Protocol: as §1

[11] = discussion summary, cell model not specified
[12] = qRT-PCR, analogues at Vero IC50 concentration
[13] = qRT-PCR, analogues at Vero IC50 concentration, Dox, 5FU, Cis as positive cardiotoxic drugs

SMILES	concentration found effective against cancer (colorectal cancer)	IC50 [1]	overall cardiotoxicity across the parameters analyzed [2]	ROS level in treated cardiomyocytes [2, 11]	active mitochondria status in treated cardiomyocytes [2, 11]	cytotoxic effect against cardiomyocytes by MTT, CCK-8 and LDH assay [2, 11]	intracellular calcium level in treated cardiomyocytes [2, 11]	GATA4 gene expression in WJCM [3, 12]	MHCα gene expression in WJCM [3, 12]	Troponin I gene expression in WJCM [3, 12]	cardiac marker gene expression in WJCM (all markers together) [3, 13]	decrease in viability of H9C2 cells (MTT) (H9C2 cells [4])	LDH release in WJCM [5]	LDH release in H9C2 cells (H9C2 cells [6])	MTT cell viability in WJMSCs (WJMSCs [7])	LDH release in WJMSCs (WJMSCs [8])	CCK-8 in WJMSCs (WJMSCs [9])	cardiac marker gene expression in WJCM (all markers together) [3]	further results
O=C(/C=C/c1ccc(S(=O)(=O)NCc2cccs2)cc1)NO [NMJ-1]	5.07 µM	9.7 µM	cardiotoxic	increased ROS levels	loss of mitochondria	induced toxicity	increased the level	decreased the expression	decreased the expression	decreased the expression	drastic reduction	10–20%	increase in LDH	increase in LDH					
Cc1ccc(-c2oc3cc(C)ccc3c(=O)c2O)cc1 [QMJ-5, 3-Hydroxy-7-methyl-2-(4-methylphenyl)-4H-1-benzopyran-4-one]	27.4 µM	55.6 µM	cardiotoxic	increased ROS levels	loss of mitochondria	induced toxicity	increased the level	decreased the expression	decreased the expression	decreased the expression	drastic reduction	10–20%	increase in LDH	increase in LDH					
COc1cccc2c1C(=O)c1c(O)c3c(c(O)c1C2=O)C[C@@](O)(C(=O)CO)C[C@@H]3O[C@H]1C[C@H](N)[C@H](O)[C@H](C)O1 [Dox, doxorubicin, reference compound]				increased ROS level	affected cardiomyocyte mitochondrial activity		alternation in calcium				reduced all the cardiac markers expression drastically	~25%			no significant difference	no significant difference	no significant difference		NO production / NO levels [2, 11]: reduced NO production; toxicity / cell viability in WJCM (MTT, CCK-8), result in words [10]: reduced cell viability drastically
Cc1ccc(-c2oc3ccccc3c(=O)c2O)cc1 [QMJ-2, 3-hydroxy-2-(4-methylphenyl)-4H-1-benzopyran-4-one]	68 µM	140 µM	cardiotoxic	increased ROS levels	loss of mitochondria	induced toxicity	increased the level	decreased the expression	decreased the expression	decreased the expression		10–20%	increase in LDH	increase in LDH				drastic reduction	Troponin T gene expression in WJCM, result in words [3, 12]: milder increase
N.N.[Cl][Pt][Cl] [Cis, cisplatin]																no significant difference	no significant difference	reduced all the cardiac markers expression drastically	
O=c1[nH]cc(F)c(=O)[nH]1 [5FU, 5-fluorouracil]											reduced all the cardiac markers expression drastically				no significant difference	no significant difference	no significant difference		
